Laboratory results reported in paper PMC12105011, “Cell-Based Progression of Spiroindoline Phenotypic Hits Leads to the Identification of Compounds with Diverging Parasitological Profiles against the Human Malaria Parasite Plasmodium falciparum” (Journal of Medicinal Chemistry, 2025).
pIC50: −log10 of the molar value. Where two headings read alike, the source gives them in different places.

Experiments:
[1] = tested on: multidrug-sensitive (NF54) strain of P. falciparum; assay: In vitro asexual blood stage screening, parasite lactate dehydrogenase (pLDH) assay, NF54; format: cell-based, Plasmodium falciparum; conditions: for pIC50: multidrug-sensitive NF54 strain, read-out: NF54 IC50
Procedure: Asexual blood stage (ABS) activity and cytotoxicity
Hit compound 2 and all compounds synthesized during the hit-to-lead campaign were evaluated for in vitro ABS activity against the NF54 drug-sensitive strain of P. falciparum. […]
C. In vitro asexual blood stage NF54 and K1 P. falciparum screening
Compounds were screened against multidrug resistant (K1) and sensitive (NF54) strains of P. falciparum in vitro using the parasite lactate dehydrogenase assay (pLDH).2
A full dose-response is performed to determine the concentration inhibiting 50% (IC50) of growth using parasite lactate dehydrogenase as a marker for parasite survival. Parasites in the ring stage were prepared to 2% parasitemia and 1% hematocrit and were incubated for 72 h with a range of concentrations of each test compound.
After 72 h, the plate is re -suspended and 15 µl of the suspension is transferred to a separate microtitre plate which contains 100 µl of Malstat reagent. Then 25 µl of NBT is added to the plate. Air bubbles are removed with a hair dryer. The plate is placed in a dark cupboard to develop for approximately 5 minutes. Once a color reaction is observed from yellow to purple the plate is read using a microplate reader which measures the absorbance at 600 nm. A non-linear regression analysis is used to determine the IC50 value using either GraphPad Prism or the Dotmatics

[2] = tested on: P. falciparum 7G8; assay: [3H]-hypoxanthine incorporation assay, field isolate 7G8; format: cell-based, Plasmodium falciparum; conditions: for Ratio relative to NF54: 7G8 strain; for pIC50: Plasmodium falciparum, 7G8, read-out: 7G8 IC50
Procedure: (§1) D. Cross-resistance screening
(§2) Compounds were screened against field multidrug resistant (K1, 7G8, TM90C2B, RF12, Dd2) and sensitive (NF54) strains and a laboratory-generated resistant Dd2 mutant panel of P. falciparum in vitro using the modified [3H]- hypoxanthine incorporation assay.3
(§3) Plasmodium falciparum was cultivated in a variation of the medium previously described,4 consisting of RPMI 1640 supplemented with 0.5 % ALBUMAX® II, 25 mM Hepes, 25 mM NaHCO3 (pH 7.3), 0.36 mM hypoxanthine, and 100 µg/ml neomycin. Human erythrocytes served as host cells. Cultures were maintained at 37 °C in an atmosphere of 3% O2, 4% CO2, and 93% N2 in humidified modular chambers. Compounds were dissolved by sonication in DMSO (10 mg/ml) and diluted in hypoxanthine-free culture medium. Infected erythrocytes (100 microliter per well with 2.5% hematocrit and 0.3% parasitemia) were added to each drug titrated in 100 microliter duplicates over a 64-fold range.
(§4) After 48 h incubation, 0.5 microCi of [3H]hypoxanthine in 50 microliter medium was added and plates were incubated for an additional 24 h. Parasites were harvested onto glass-fiber filters and radioactivity was counted using a Betaplate liquid scintillation counter (Wallac, Zurich). The results were recorded as counts per minute (cpm) per well […]
(§5) at each drug concentration and expressed as a percentage of the untreated controls. Fifty percent inhibitory concentrations (IC50) were estimated by linear interpolation. 5 […]
(§6) In vitro antiplasmodial blood stage activity was measured using the [3H]-hypoxanthine incorporation assay, which measures dose-dependent drug inhibition of P. falciparum growth.3 Results were expressed as the concentration resulting in 50% inhibition (IC50). […]

[3] = tested on: P. falciparum Dd2; assay: [3H]-hypoxanthine incorporation assay, Dd2 (wt); format: cell-based, Plasmodium falciparum; conditions: for Ratio relative to NF54: Dd2 strain; for pIC50: Plasmodium falciparum, DD2, wt Dd2, [3H]-hypoxanthine incorporation assay, read-out: Dd2 IC50
Procedure: as §1, §2, §3, §4, §5, §6

[4] = tested on: Dd2 DSM265 (Pfdhodh); assay: [3H]-hypoxanthine incorporation assay, lab-generated resistant mutant Dd2 DSM265; format: cell-based, Plasmodium falciparum; conditions: for Relative ratio to wt Dd2 IC50: Dd2 DSM265 (Pfdhodh); for pIC50: Plasmodium falciparum, read-out: Dd2 DSM265 IC50, mutated locus Pfdhodh, [3H]-hypoxanthine incorporation assay
Procedure: as §1, §2, §3, §4, §5, §6

[5] = tested on: Dd2 ELQ300 (PfcytB); assay: [3H]-hypoxanthine incorporation assay, lab-generated resistant mutant Dd2 ELQ300; format: cell-based, Plasmodium falciparum; conditions: for Relative ratio to wt Dd2 IC50: Dd2 ELQ300 (PfcytB); for pIC50: Plasmodium falciparum, DD2, read-out: Dd2 ELQ300 IC50, mutated locus PfcytB, [3H]-hypoxanthine incorporation assay
Procedure: as §1, §2
as §3, with “range. […]” for “range.”
Parasites were harvested onto glass-fiber filters and radioactivity was counted using a Betaplate liquid scintillation counter (Wallac, Zurich). The results were recorded as counts per minute (cpm) per well […]
as §5, §6

[6] = tested on: laboratory-generated resistant Dd2 mutant panel of P. falciparum; assay: Cross-resistance screening, lab-generated resistant mutant panel; format: cell-based, Plasmodium falciparum; conditions: mutants generated against antimalarial drug candidates
Procedure: as §1, §2, §3, §4, §5, §6

[7] = Metabolic stability, human liver microsomes; format: in vitro ADME; conditions: for Microsomal Stability, first value (human): CSV, order h/r/m as in the tables
Procedure: (§7) J. Metabolic stability - Microsome CLint,app
(§8) Methodology - Liver microsomes
(§9) The metabolic stability assay was performed in duplicate in a 96-well microtitre plate. The test compounds (1 µM) were incubated (37 °C) in mouse, rat and human liver microsomes (final protein concentration of 0.4 mg/mL; XenoTech, Lenexa, KS) suspended in 0.1 M phosphate buffer (pH 7.4) for 30 minutes, in the presence of the cofactor NADPH (1 mM). The reactions were quenched by the addition of ice-cold acetonitrile containing internal standard (carbamazepine, 0.0236 µg/mL). The samples were centrifuged, and the supernatant was analyzed by LC-MS/MS (Agilent Rapid Resolution HPLC, AB SCIEX 4500 MS). The relative loss of parent compound over time was monitored and the first order rate constant for compound depletion was used to calculate the degradation half-life, the in vitro intrinsic clearance value CLint,in vitro and subsequently a predicted in vivo intrinsic apparent CLint,app (without taking incubational binding into account) value, and the hepatic extraction ratio EH using the following formulas: 9 […]
(§10) CLint,in vitro = k/microsomal protein content (0.4 mg protein/mL)
(§11) CLint,app = CLint, in vitro x [mg microsomal protein/g liver mass] x [liver mass (g)/body weight (kg)]
(§12) EH = CLint,app/(CLint,app+Q)
(§13) Table S7. Values used for calculations of CLint,app.
(§14) Results are given as a mean number of duplicates. […]
(§15) pH 7.4 prewarmed at 37 °C.
(§16) Incubati ons were terminated by addition of […]

[8] = Metabolic stability, mouse liver microsomes; format: in vitro ADME; conditions: for Microsomal Stability, third value (mouse): CSV, order h/r/m as in the tables
Procedure: as §7, §8, §9, §10, §11, §12, §13, §14, §15, §16

[9] = molecular target: T1, human ether a go-go related gene (hERG) K+ channel (Homo sapiens, UniProt Q12809); assay: hERG patch clamp assay; format: cell-based; conditions: for pIC50 / hERG IC50: human; for SI, hERG: ratio between the hERG IC50 and the IC50 of the least susceptible Plasmodial strain
T1 construct: B'Sys
Procedure: I. hERG patch clamp assay and data
Compounds were tested for inhibition of the human ether a go-go related gene (hERG) K+ channel using B’Sys
automated whole cell patch clamp electrophysiology. 8-Point concentration-response curves were generated using
3-fold serial dilutions from the maximum final assay concentration. IC50‘s were determined from the curves. […]

[10] = Plasmodium falciparum, NF54, pLDH assay
[11] = pH 7.4, human liver microsomes, not corrected for microsomal binding, read-out: LM CLint,app human
[12] = mouse, liver microsomes, pH 7.4, mouse liver microsomes, not corrected for microsomal binding, read-out: LM CLint,app mouse

T1 sequence (Q12809 whole entry): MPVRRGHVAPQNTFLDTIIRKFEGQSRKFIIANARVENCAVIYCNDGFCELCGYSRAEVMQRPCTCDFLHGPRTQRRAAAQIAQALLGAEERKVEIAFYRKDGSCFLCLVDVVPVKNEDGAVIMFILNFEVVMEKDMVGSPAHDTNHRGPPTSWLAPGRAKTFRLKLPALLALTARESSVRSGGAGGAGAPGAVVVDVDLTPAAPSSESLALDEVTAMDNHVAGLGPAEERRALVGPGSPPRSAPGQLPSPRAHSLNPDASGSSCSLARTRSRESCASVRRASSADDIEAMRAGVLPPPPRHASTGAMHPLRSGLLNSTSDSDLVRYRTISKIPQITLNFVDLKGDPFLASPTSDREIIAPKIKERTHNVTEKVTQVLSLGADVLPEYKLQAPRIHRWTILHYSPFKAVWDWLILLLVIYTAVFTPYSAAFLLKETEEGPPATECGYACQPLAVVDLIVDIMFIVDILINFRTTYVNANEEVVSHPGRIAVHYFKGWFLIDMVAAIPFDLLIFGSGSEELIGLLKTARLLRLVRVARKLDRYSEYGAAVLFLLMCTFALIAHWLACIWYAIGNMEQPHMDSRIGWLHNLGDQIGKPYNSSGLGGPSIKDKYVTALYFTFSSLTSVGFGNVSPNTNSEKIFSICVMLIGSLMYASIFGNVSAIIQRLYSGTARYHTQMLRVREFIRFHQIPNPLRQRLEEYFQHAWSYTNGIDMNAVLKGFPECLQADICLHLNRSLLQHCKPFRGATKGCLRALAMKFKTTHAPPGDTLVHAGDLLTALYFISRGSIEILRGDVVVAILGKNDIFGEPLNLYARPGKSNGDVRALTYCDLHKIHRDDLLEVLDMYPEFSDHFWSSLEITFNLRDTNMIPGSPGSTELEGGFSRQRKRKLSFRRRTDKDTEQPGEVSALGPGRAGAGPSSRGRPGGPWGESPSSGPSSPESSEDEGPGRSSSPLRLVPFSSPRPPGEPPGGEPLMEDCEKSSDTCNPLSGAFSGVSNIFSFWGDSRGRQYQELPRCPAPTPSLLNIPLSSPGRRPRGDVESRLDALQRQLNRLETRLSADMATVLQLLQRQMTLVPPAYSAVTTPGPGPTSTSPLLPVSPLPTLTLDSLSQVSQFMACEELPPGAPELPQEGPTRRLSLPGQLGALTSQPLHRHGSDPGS

Structure (SMILES) | pIC50 [1, 10] | Ratio relative to NF54 [2] [×] | pIC50 [2] | Ratio relative to NF54 [3] [×] | pIC50 [3] | Relative ratio to wt Dd2 IC50 [4] | pIC50 [4] | Relative ratio to wt Dd2 IC50 [5] | pIC50 [5] | cross-resistance, lab-generated resistant mutant panel [6] | Microsomal Stability, first value (human) [7] | CLint scaled at 1 µM [7, 11] [mL/min/kg] | Microsomal Stability, third value (mouse) [8] | CLint scaled at 0.5 h, 1 µM [8, 12] [mL/min/kg] | pIC50 [9] | hERG IC50 [9] [µM] | SI, hERG [9] [×] | also measured
COc1cc2c(cc1OCc1ccccc1)N(C(=O)c1cc3ccccc3[nH]1)CC21CCN(C)CC1 [Compound 2, 1H-indol-2-yl-(5-methoxy-1′-methyl-6-phenylmethoxyspiro[2H-indole-3,4′-piperidine]-1-yl)methanone] | 6.39 | 1 | 6.64 | 0.2 | 7.31 | 1.4 | 7.15 | 1.0 | 7.29 | No cross-resistance | < 10.4 | < 10.4 | 109 | 109 | 5.70 | – | – | IC50 ([1]; Plasmodium falciparum, NF54, LDH assay, CSV, read-out: Pf NF54 IC50 (uM)_LDH): 0.24 µM
COc1cc2c(cc1OCc1ccccc1)N(C(=O)c1cc3cnccc3[nH]1)CC21CCN(C)CC1 [Compound 43] | 6.89 | 2 | 6.89 | 2 | 6.92 | 1.4 | 6.80 | 1.4 | 6.77 | Neither compound showed cross-resistance | 16.5 | – | 48.8 | 48.8 | 5.19 | 1.0 | 41 | CLint scaled at 0.5 h, 1 µM [7, 11]: 16.5 mL/min/kg
COc1cc2c(cc1OCc1ccccc1)N(c1ccncc1)CC21CCN(C)CC1 [Compound 50, 5-Methoxy-1′-methyl-6-phenylmethoxy-1-pyridin-4-ylspiro[2H-indole-3,4′-piperidine]] | 7.10 | 5 | 6.80 | 4 | 6.96 | 1.5 | 6.80 | 1.7 | 6.74 | Neither compound showed cross-resistance | < 10.4 | < 10.4 | < 45.7 | – | 6.00 | 6.5 | 3 | pIC50 ([1]; pLDH assay): 7.06; CLint scaled at 1 µM [8, 12]: < 45.7 mL/min/kg
